Measurements published in patent US20050159390A1, “Treatment and prevention of HIV and other viral infections” (priority 1998, published 2005).

Tests used:
Molt-4 = assay: Cell proliferation in treated cell lines; type: cell-based, human; conditions: treated cell line; 0 to 200 μM or 1000 μM
HIV-1 MN = assay: P-24 assay, syncytia and CPE in infected PBMCs; type: cell-based
Experimental: PBMCs were isolated as described above and incubated with HIV-1 MN (NIH AIDS reagent program, catalog #137) at 37° C. for 3 hours in 15 mL tubes. Test groups included uninfected PBMCs, infected PBMCs with no N-glycolylneuraminic acid, and infected PBMCs plus N-glycolylneuraminic acid. […] Excess virus was removed by washing the cells with PBS one time then the cells were exposed to N-glycolylneuraminic acid. P24 output was measured using the DuPont P24 assay kit (optical density (OD) in Table 15). Syncytia formation was examined as well as cytopathic effects (CPE). […] Sample #7 (p24 123×10^6 pg HIV-1P24/ml) was excluded from the mean P24 output calculation due to a sampling error.

DU-145 = assay: Cell proliferation in treated cell lines; type: cell-based, human; conditions: treated cell line; 0 to 200 μM or 1000 μM
PBMCs = type: cell-based, human; conditions: human, 6 days
Experimental: For the standard PBMC assay, PHA-P stimulated cells from at least two normal donors were pooled, diluted in fresh medium to a final concentration of 1×10^6 cells/mL, and plated in the interior wells of a 96 well round bottom microplate at 50 μL/well (5×10^4 cells/well). Test drug dilutions were prepared at a 2× concentration in microfuge tubes and 100 μL of each concentration was placed in appropriate wells in a standard format. A predetermined dilution of virus stock was placed in each test well (50 μL, final MOI≅0.1). Wells with cells and virus alone were used for virus control. Separate plates were prepared identically without virus for drug cytotoxicity studies using an XTT assay system. […]
Tetrazolium dye staining of screening plates: After 6 days of incubation (37° C. with 5% CO2), the test plates were analyzed by staining with the tetrazolium dye XTT (2,3-b (2-methoxy-4-nitro-5-sulfophenyl)-2H-tetrazolium-5-carboxanilide). XTT-tetrazolium is metabolized by mitochondrial enzymes of metabolically active cells to a soluble formazan product, allowing the rapid quantitative analysis of the inhibition of HIV-induced cell killing by anti-HIV compounds. […] Plates were sealed with adhesive plate sealers and inverted several times to mix the soluble formazan product and the plate was read spectrophotometrically at 450 nm with a Molecular Devices Vmax plate reader. […]

HSF = assay: Cell proliferation in treated cell lines; type: cell-based, Human; conditions: treated cell line; 0 to 200 μM or 1000 μM
TNFα = TNFα production in latently infected promonocytic U1 cells, ELISA; type: cell-based; conditions: read-out: Inhibition of TNFα Production % of Control
Experimental: TNFα production was determined by an enzyme linked immunosorbent assay (ELISA) in a competitive format, using a commercially available anti-TNFα antibody. Inhibition of TNFα production is reported as percent of saline control in Table 18 and was dose dependent.

HIV-1RF = assay: CEM-SS cell-based assay, inhibition of HIV-induced cell killing (XTT); conditions: 3.2 μM to 1 mM
Experimental: Cell Preparation: Prior to infection, CEM-SS cells were grown in complete tissue culture medium (RPMI 1640 medium with 10% heat-inactivated fetal bovine serum, 2 mM L-glutamine, 100 U/mL penicillin, 100 μg/mL streptomycin, 10 μg/mL gentamycin) and transferred to T-150 flasks. On the day preceding the assay, the cells were split 1:2 to assure the cells would be in an exponential growth phase at time of infection. On the day of assay, the cells were washed twice with tissue culture medium and resuspended in fresh tissue culture medium. […]
Virus Preparation: Pre-tittered aliquots of HIV-1ROJO and HIV-1RF were removed from the freezer (−80° C.) and thawed to room temperature in a biological safety cabinet. The virus was resuspended and diluted into tissue culture medium such that the amount of virus added to each well in a volume of 50 μL will be the amount determined to give complete cell killing at 6 days post-infection.
Tetrazolium dye staining of screening plates: After 6 days of incubation (37° C. with 5% CO2), the test plates were analyzed by staining with the tetrazolium dye XTT (2,3-b (2-methoxy-4-nitro-5-sulfophenyl)-2H-tetrazolium-5-carboxanilide). XTT-tetrazolium is metabolized by mitochondrial enzymes of metabolically active cells to a soluble formazan product, allowing the rapid quantitative analysis of the inhibition of HIV-induced cell killing by anti-HIV compounds. […]

gp120 = target: T1, gp120 (Human immunodeficiency virus type 1 group M subtype B, UniProt P05877); assay: Inhibition of gp120 binding, HIVMN to CEM-SS cells; design: species or system HIV
T1 construct: host or cells: HIV MN virus added to CEM-SS cells

HepG2 = assay: Cell proliferation in treated cell lines; type: cell-based, human; conditions: treated cell line; 0 to 200 μM or 1000 μM
HIV-1IIIB = assay: CEM-SS cell-based assay, inhibition of HIV-induced cell killing (XTT); conditions: 3.2 μM to 1 mM
HT1080 = assay: Cell proliferation in treated cell lines; type: cell-based, human; conditions: treated cell line; 0 to 200 μM or 1000 μM
X4 strain LAI/IIIB = assay: RT activity in infected PBMCs treated with carbohydrates; type: cell-based, HIV; conditions: summary of Table 17
Experimental: Reverse Transcriptase Activity Assay: A microtiter based reverse transcriptase (RT) reaction was utilized as described by Buckheit et al., (1991), AIDS Research and Human Retroviruses, 7: 295-302. Tritiated thymidine triphosphate (3H-TTP) was suspended in distilled H2O at 5 Ci/mL. Poly rA and oligo dT were prepared as a stock solution which was kept at −20° C. RT reaction buffer was prepared fresh on a daily basis and contained 125 μL 1M EGTA, 125 μL dH2O, 110 μL 10% SDS, 50 μL 1M Tris (pH 7.4), 50 μL 1M DTT, and 40 μL 1M MgCl2. These three solutions were mixed together in a ratio of 2 parts 3H-TTP, 1 part poly rA:oligo dT, and 1 part reaction buffer. Ten microliters of this reaction mixture were placed in a round bottom microtiter plate and 15 μL of virus containing supernatant were added and mixed. The plate was incubated at 37° C. in a water bath with a solid support to prevent submersion of the plate and incubated for 60 minutes. […] Opti-Fluor-O (Packard) was added to each sample and incorporated radioactivity was quantified utilizing a Wallac 1450 MicroBeta Plus liquid scintillation counter. […]
No carbohydrates were added to the control sample. RT activity was determined at 3, 6, 9, 13, 17, and 20 days post-infection (PI) with X4 strain LAI/IIIB.

O=C(CO)N[C@H]1[C@H]([C@H](O)[C@H](O)CO)OC(O)(C(=O)O)C[C@@H]1O (some centres unmarked) [N-glycolylneuraminic acid]
% Confluency (day 5) (Molt-4): 50%
CPE (HIV-1 MN; dilution 1:2): negative
Syncytia (HIV-1 MN; dilution 1:2): negative
CPE (HIV-1 MN; dilution 1:4): negative
Syncytia (HIV-1 MN; dilution 1:4): negative
CPE (HIV-1 MN; dilution 1:8): negative
Syncytia (HIV-1 MN; dilution 1:8): negative
CPE (HIV-1 MN; dilution 1:16): negative
Syncytia (HIV-1 MN; dilution 1:16): negative
CPE (HIV-1 MN; dilution 1:32): negative
Syncytia (HIV-1 MN; dilution 1:32): negative
CPE (HIV-1 MN; dilution 1:64): negative
Syncytia (HIV-1 MN; dilution 1:64): negative
% Confluency (day 5) (DU-145): 100%
TC50 (PBMCs): > 1000 µM
% Confluency (day 5) (HSF): 100%
inhibition at 0.1 µM (TNFα; 0.1 μM): 0%
inhibition at 0.3 µM (TNFα; 0.3 μM): 0%
inhibition at 10 µM (TNFα; 10 μM): 9.8%
inhibition at 30 µM (TNFα; 30 μM): 22.6%
inhibition at 100 µM (TNFα; 100 μM): 96%
anti-HIV activity (HIV-1RF): did not display anti-HIV activity
Inhibition of gp120 Binding (% of control) (gp120; 20 μm/ml): 9.8%
Inhibition of gp120 Binding (% of control) (gp120; 80 μm/ml): 57.6%
Inhibition of gp120 Binding (% of control) (gp120; 200 μm/ml): 86.8%
% Confluency (day 5) (HepG2): 50%
anti-HIV activity (HIV-1IIIB): did not display anti-HIV activity
% Confluency (day 5) (HT1080): 100%
RT activity in treated cells (in words) (X4 strain LAI/IIIB): RT activity was decreased
